From patent US8846672B2, “Imidazopyridines as respiratory syncytial virus antiviral agents” (Janssen R&D Ireland, priority 2010, dated 2014)

Tested on: not listed separately
Experiment: Toxicity (CC50)
Settings: not given

Row | Compound | CC50
1 | O=c1n(Cc2nc3cc(Cl)ccn3c2CCCCO)c2cnccc2n1C1CC1 [Compound P1, 3-((7-chloro-3-(4-hydroxybutyl)imidazo[1,2-a]pyridin-2-yl)methyl)-1-cyclopropyl-1H-imidazo[4,5-c]pyridin-2(3H)-one] | > 9840 nM
2 | O=c1n(Cc2nc3ccccn3c2CCC2CC2)c2cnccc2n1C1CC1 [Compound P3, 1-cyclopropyl-3-((3-(2-cyclopropylethyl)imidazo-[1,2-a]pyridin-2-yl)methyl)-1H-imidazo[4,5-c]pyridin-2(3H)-one] | > 9840 nM

Tested on: RSV
Experiment: RSV inhibitory activity (WT activity)
Type: cell-based, respiratory syncytial virus
Settings: Table 1, wild-type RSV

Row | Compound | EC50
3 | COCCCc1c(Cn2c(=O)n(C3CC3)c3ccncc32)nc2cc(Cl)ccn12 [Compound P2] | 3.8 nM
4 | O=c1n(Cc2nc3ccccn3c2CCCCO)c2cnccc2n1C1CC1 [Compound P5] | 21.8 nM
5 | COCC#Cc1c(Cn2c(=O)n(C3CC3)c3ccncc32)nc2cc(Cl)ccn12 [Compound P6] | 170 nM
6 | O=c1n(Cc2nc3cc(CCCCO)ccn3c2CCCCO)c2cnccc2n1C1CC1 [Compound P10] | > 9840 nM
7 | CC(C)CC#Cc1c(Cn2c(=O)n(C(C)C)c3ccccc32)nc2ccccn12 [Compound P11] | 11300 nM
8 | CC(C)n1c(=O)n(Cc2cn3ccccc3n2)c2ccccc21 [Compound P12] | 16100 nM
9 | O=c1n(Cc2cn3ccccc3n2)c2cnccc2n1C1CC1 [Compound P13] | 51500 nM
10 | O=c1n(Cc2cn3ccncc3n2)c2cnccc2n1C1CC1 [Compound P14] | > 98400 nM

Same assay, conditions: Table 2, wild-type RSV

Row | EC50 | Compound
11 | 318 nM | CC(C)(C)C=Cc1c(Cn2c(=O)n(C3CC3)c3ccncc32)nc2cnccn12 [Compound P15]
12 | 172 nM | CC(C)(C)CCc1c(Cn2c(=O)n(C3CC3)c3ccncc32)nc2cnccn12 [Compound P16]
13 | 2.61 nM | CN(C)C(=O)CCc1c(Cn2c(=O)n(C3CC3)c3ccncc32)nc2cc(Cl)ccn12 [Compound P23]
14 | 15.3 nM | CN(C)C(=O)CCc1c(Cn2c(=O)n(C3CC3)c3ccncc32)nc2ccccn12 [Compound P25]

Row | Compound | EC50
15 | COC(=O)C=Cc1c(Cn2c(=O)n(C3CC3)c3ccncc32)nc2cc(Cl)ccn12 [Compound P20] | 2.97 nM
16 | N#CC=Cc1c(Cn2c(=O)n(C3CC3)c3ccncc32)nc2cc(Cl)ccn12 [Compound P21] | 13.6 nM

Same assay, conditions: human respiratory syncytial virus; Table 1, wild-type RSV

Row | EC50 | Compound
17 | 0.4 nM | O=c1n(Cc2nc3cc(Cl)ccn3c2CCCCO)c2cnccc2n1C1CC1 [Compound P1, 3-((7-chloro-3-(4-hydroxybutyl)imidazo[1,2-a]pyridin-2-yl)methyl)-1-cyclopropyl-1H-imidazo[4,5-c]pyridin-2(3H)-one]
18 | 5.25 nM | O=c1n(Cc2nc3ccccn3c2CCC2CC2)c2cnccc2n1C1CC1 [Compound P3, 1-cyclopropyl-3-((3-(2-cyclopropylethyl)imidazo-[1,2-a]pyridin-2-yl)methyl)-1H-imidazo[4,5-c]pyridin-2(3H)-one]

Same assay, conditions: human respiratory syncytial virus; Table 2, wild-type RSV

Row | EC50 | Compound
19 | 276 nM | O=c1n(Cc2nc3cnccn3c2CCCCO)c2cnccc2n1C1CC1 [Compound P17, 1-cyclopropyl-3-((3-(4-hydroxybutyl)imidazo[1,2-a]pyrazin-2-yl)methyl)-1H-imidazo[4,5-c]pyridin-2(3H)-one]
20 | 2.19 nM | O=C(CCc1c(Cn2c(=O)n(C3CC3)c3ccncc32)nc2cc(Cl)ccn12)N1CCOCC1 [Compound P26, 3-((7-chloro-3-(3-morpholino-3-oxopropyl)imidazo[1,2-a]pyridin-2-yl)methyl)-1-cyclopropyl-1H-imidazo[4,5-c]pyridin-2(3H)-one]
21 | 55.8 nM | O=C(CCc1c(Cn2c(=O)n(C3CC3)c3ccncc32)nc2ccccn12)N1CCOCC1 [Compound P27, 1-cyclopropyl-3-((3-(3-morpholino-3-oxopropyl)imidazo[1,2-a]pyridin-2-yl)methyl)-1H-imidazo[4,5-c]pyridin-2(3H)-one]

Row | Compound | EC50
22 | O=c1n(Cc2nc3cnccn3c2CCCCF)c2cnccc2n1C1CC1 [Compound P18, 1-cyclopropyl-3-((3-(4-fluorobutyl)imidazo[1,2-a]pyrazin-2-yl)methyl)-1H-imidazo[4,5-c]pyridin-2(3H)-one] | 544 nM
